2 compounds from US10716814B2, “Mesenchymal stem cells and uses therefor” (Mesoblast International Sárl, priority 2004, dated 2020) can be followed below.

One test has as its system DC1 cells. Put plainly: MSC co-culture with LPS-activated DC1 cells, TNF-α secretion. In kind it is cell-based, human. To be noted: MSCs cultured with activated DC1 in presence of PGE2 inhibitor. The text has this: Peripheral blood mononuclear cells (PBMCs) were obtained from Poietics Technologies, Div of Cambrex Biosciences (Walkersville, Md.). Precursors of dendritic cells (DCs) of monocytic lineage (CD1c^+) were positively selected from PBMCs using a 2-step magnetic separation method according to Dzionek, et al., J. Immunol., Vol. 165, pg. 6037 (2000). Briefly, CD1c expressing B cells were magnetically depleted of CD19^+ cells using magnetic beads, followed by labeling the B-cell depleted fraction with biotin-labeled CD1c (BDCA1^+) and anti-biotin antibodies and separating them from the unlabeled cell fraction utilizing magnetic columns according to the manufacturer's instructions (Miltenyi Biotech, Auburn, Calif.). Precursors of DCs of plasmacytoid lineage were isolated from PBMCs by immuno-magnetic sorting of positively labeled antibody coated cells (BDCA2^+) (Miltenyi Biotech, Auburn, Calif.).
In most experiments, human MSCs and DCs were cultured in equal numbers for various time periods and cell culture supernatant collected and stored at −80° C. until further evaluation. […] The non-adherent cell fraction (purified T cells) was then collected from the cultures, washed twice and re-stimulated with PHA for another 24 hours, following which cell culture supernatants were harvested and analyzed for secreted IFN-γ and IL-4 by ELISA. […]

Another test concerns MSCs. The test can be described thus: Secreted factors (PGE2, IL-6, VEGF, pro-MMP-1) in culture supernatant of MSCs. It counts as cell-based. To be noted: Homo sapiens, 24 hour culture, read-out: inhibition of PGE2 secretion by hMSCs. As for the experimental part:
Using previously characterized human MSCs, the levels of Interleukin-6 (IL-6), VEGF, lipid mediator prostaglandin E2 (PGE2), and matrix metalloproteinase 1 (pro-MMP-1) were analyzed in culture supernatant of MSCs cultured for 24 hours in the presence or absence of PBMCs (MSC to PBMC ratio 1:10).

The next test relates to CD4+ Th cells. The test can be described thus: Generation of TH1/TH2 cells in presence or absence of MSCs, IFN-γ and IL-4 by ELISA. In kind it is cell-based, human. Particulars: MSCs cultured with TH1 cells in presence of PGE2 inhibitor. On the procedure:
Peripheral blood mononuclear cells (PBMCs) were plated at 2×10^6 cells/ml for 45 min. at 37°C. in order to remove monocytes. Non-adherent fraction was incubated in the presence of plate-bound anti-CD3 ([…]) and anti-CD28 (1 μg/ml) antibodies under TH1 (IL-2 (4 ng/ml)+IL-12 (5 ng/ml)+anti-IL-4 (1 μg/ml)) or TH2 (IL-2 (4 ng/ml)+Il-4 (4 ng/ml)+anti-IFN-γ (1 μg/ml)) conditions for 3 days in the presence or absence of MSCs. The cells were washed and then re-stimulated with PHA (2.5 μg/ml) for another 24 or 48 hours, following which levels of IFN-γ and IL-4 were measured in culture supernatants by ELISA (R&D Systems, Minneapolis, Minn.).
In general terms: An ELISA detects its analyte on a solid surface through an enzyme-linked reagent.

For `CS(=O)(=O)Nc1ccc([N+](=O)[O-])cc1OC1CCCCC1` [NS-398], in the test on DC1 cells, the “TNF-α secretion by DC1s” value is “increased TNF-α secretion”. Besides, in the test with MSCs (NS-398 5 μM), the inhibition (in general, the share of the control response that was lost under treatment) at 5 µM lay within 60 to 90%. Besides, the “IFN-γ secretion from TH1 cells” value with CD4+ Th cells is given as “increased”.

Consider `COc1ccc2c(c1)c(CC(=O)O)c(C)n2C(=O)c1ccc(Cl)cc1` [indomethacin], for which the “TNF-α secretion by DC1s” value in the test on DC1 cells was “increased TNF-α secretion”. The inhibition at 4 µM in the test on MSCs (indomethacin 4 μM) is 60 to 90%. Further, the “IFN-γ secretion from TH1 cells” value in the test with CD4+ Th cells is given as “increased”.
